Source: ChEMBL document CHEMBL4229412, “Design, synthesis, in vitro and in vivo evaluation, and structure-activity relationship (SAR) discussion of novel dipeptidyl boronic acid proteasome inhibitors as orally available anti-cancer agents for the treatment of multiple myeloma and mechanism studies” (Bioorg Med Chem, 2018)

Experiment: in vivo
Conditions: Sprague-Dawley, rat, po, 1.2 mg/kg

SMILES: CC(C)C[C@H](NC(=O)CNC(=O)c1cc(Cl)ccc1Cl)B(O)O [IXAZOMIB]
- bioavailability: 27.8%
